Reference: patent US20160340659A1, “ACTIN BINDING PEPTIDES AND COMPOSITIONS COMPRISING SAME FOR INHIBITING ANGIOGENESIS AND TREATING MEDICAL CONDITIONS ASSOCIATED WITH SAME” (YISSUM RESEARCH AND DEVELOPMENT COMPANY OF THE HEBREW …, priority 2014, published 2016)
“Also recorded” adds a separate entry of the source. Marks after values point to notes of the source that are not given here. Where no end group is shown, it is not given here.

Experiments:
[1] = molecular target: actin (Oryctolagus cuniculus, UniProt P68135); assay: Actin binding solid phase assay; settings: immobilized actin, 0-500 ng/100 μl well
Method: 96-well plates (MaxiSorp® flat-bottom 96-well plate, Fisher Scientific Inc., Fair Lawn, N.J.) were coated with 500 ng actin in 100 μl carbonate-bicarbonate buffer (pH 9.5) for 1 h at 37° C. The plate was washed once with TBS and then blocked with 3% BSA in 200 μl TBS buffer at 37° C., for 1 h. Wells were then washed once with 250 μl TBS. trT2-49, trT2-49m or each of the 29 peptides were added at 1:2 dilutions in 100 μl TBS, starting from 500 ng/well, incubated for 1 h at 37° C. and then washed three times with TBS containing 0.1% Tween-20 (TBST). Each well was then treated with 100 μl rabbit anti-trT2-49 diluted 1:500 in TBS and incubated for 1 h at 37° C. The wells were washed three times with TBST and then incubated with 100 μl goat anti-rabbit IgG-HRP (Jackson ImmunoResearch, West Grove, Pa.) diluted 1:10,000 in TBS, for 1 h at 37° C. Wells were then washed twice with TBST, and once with TBS before 100 μl substrate (1-step Ultra TMB-ELISA, Pierce, Fisher Scientific Inc.) were added. Absorbance at 655 nm was measured 10 min thereafter using a Power Wave 200 Microplate Scanning Spectrophotometer (Bio-Tek Instrument, Winooski, Vt.). Affinity was evaluated by double reciprocal plotting.

[2] = system: chick Chorio-Allantoic Membrane (CAM); assay: Ex ovo CAM angiogenesis assay; format: in vivo, chicken; settings: 3 μg on paper disk daily for four days from day 8; compared to PBS control
Method: In this assay, in-vivo angiogenesis is assessed on live chick embryos grown in petri dishes. Fertilized eggs are cracked into a petri dish after a few (e.g. 3) days incubation at appropriate temperature (e.g. 37° C.) and humidity. In the following days, the embryos developed a vascular network, which can then easily be exposed to any treatment or combination of treatments, for example, via delivery onto absorbent disks placed on/about the developing vascular regions. Angiogenesis is scored by periodically (e.g. 1×/day, 2×/day, 1×/2 days, 1×/4 days, etc) counting the number of blood vessels around the disk.
Fertilized chicken eggs were incubated horizontally at 37° C. and humidity of 60-62% and cracked into Petri dishes at embryonic day 4. Incubation was continued under the same conditions. […] Treatment was given every day for four days, then, the number of blood vessels around the treated disks was counted.

[3] = system: Super metastatic A375SM cells; assay: A375SM xenograft tumor model in athymic nude mice; format: in vivo, mouse; settings: for Tumor Weight: excised tumors at end
Method: Female Hds-athymic nude mice (Harlan, Rehovot, Israel) were housed in laminar flow cabinets under specific pathogen-free conditions. Experiments were performed on mice at 7-8 weeks of age. The Animals were maintained in facilities approved by the Ethics Committee for Animal Experimentation, The Israeli Ministry of Health.
Subcutaneous tumors were produced by injecting 2.5×10^5 Super metastatic A375SM cells (single-cell suspensions, >95% viability by a trypan blue exclusion test) in 0.2 ml of Hanks' buffered salt solution into the left flank of each mouse. Tumor growth was recorded three times weekly with a caliper and calculated as a×b^2/2 cm^3 (a, long diameter; b, short diameter). Treatments commenced when tumors arrived to about 100 mm^3 volumes, as follows (iv=intravenous; it=intra-tumor, direct injection, q3×6=three times per week for six weeks, […]):
Each group comprised 10 mice. At the end of experiment, tumors were excised, weighed, and prepared for histopathological examination.
Sections from the excised tumors were examined for athological changes, using Hematoxylin-Eosin staining (nuclei stain blue) and FragEL™ TdT DNA Fragmentation Detection stain (Calbiochem, EMD Millipore, MA) for visualizing apoptotic nuclei.

[4] = 2.5 mg/kg intratumoral, three times per week
[5] = 2.5 mg/kg iv, three times per week
[6] = 5 mg/kg iv, three times per week

With “ALNSQKKYFGRSLELYRELDLNSVLLKLGIKPSINYYQVADFKDALARVYGVIPKIQ [SEQ ID NO: 60]” the “actin binding in solid-phase assay” value ([1]; listed as A103-Q159) was “most effective actin binding peptides amongst the 29 candidate peptides; also recorded: effective and concentration-dependent binding of actin” and the “inhibition of angiogenesis (number of blood vessels around disk)” value [2] was “effective in inhibiting angiogenesis”.

In the case of “KKYFGRSLELYRELDLNSVLLKLGIK [SEQ ID NO: 57, 26-amino acid peptide representing amino acids 108-133 of RNASET2]”, the “actin binding in solid-phase assay” value ([1]; listed as K108-K133) is reported as “most effective actin binding peptides amongst the 29 candidate peptides; also recorded: effective and concentration-dependent binding of actin”, the “inhibition of angiogenesis (number of blood vessels around disk)” value [2] is reported as “effective in inhibiting angiogenesis” and the “tumor volume (tumor growth)” value ([3]; 2.5 mg/kg intra-tumor, three times per week, vs PBS control) is reported as “Increasing inhibition of tumor growth”. For the same sequence, the “tumor apoptosis (FragEL stain of tumor sections)” value (“tumor apoptosis” below) [3, 4] was “abundant apoptosis”, the “tumor vascular structures (H&E sections)” value [3, 4] was “tumor cells can be seen accumulating towards the blood vessels” and the “tumor apoptosis” value ([3]; 2.5 mg/kg iv, daily) was “heightened apoptosis”. The “tumor vascular structures (H&E sections)” value ([3]; 2.5 mg/kg iv, daily) was “significant disruption of tumor histology and vascular structures”, the “tumor volume (tumor development)” value ([3]; 2.5 mg/kg iv, daily for six weeks, vs PBS control) was “increased the rate of tumor development” and the “tumor apoptosis” value [3, 5] was “abundant apoptotic cells”. The “tumor vascular structures (H&E sections)” value [3, 5] was “visible disruption of the endothelial structure”, the “tumor volume (tumor development)” value ([3]; 2.5 mg/kg iv, three times per week for six weeks, vs PBS control) was “trend of increasing inhibition of tumor development” and the “Tumor Weight” value ([3]; 2.5 mg/kg q7x6 iv) was 3469 ± 648^a. For the same sequence, the “tumor apoptosis” value [3, 6] was “an increase in apoptotic rate”, the “tumor vascular structures (H&E sections)” value [3, 6] was “only partial disruption of the endothelial cell structures” and the tumor growth ([3]; 5 mg/kg iv, three times per week, vs PBS control) was “no visible significant effect on tumor growth”. For the same sequence, the “Tumor Weight” value ([3]; 5 mg/kg q3x6 iv) was 1798 ± 385^b, the “tumor apoptosis” value ([3]; 7.5 mg/kg iv, three times per week) was “an increase in apoptotic rate” and the “tumor vascular structures (H&E sections)” value ([3]; 7.5 mg/kg iv, three times per week, relative to PBS controls) was “A small, if any effect”. The tumor growth ([3]; 7.5 mg/kg iv, three times per week, vs PBS control) was “no visible significant effect on tumor growth” and the “Tumor Weight” value ([3]; 7.5 mg/kg q3x6 iv) was 1471 ± 418^b.
